Assay results from patent US10810329B2, “In silico design of peptides equilibrated in a lipid bilayer with partition free energies indicating probability of antimicrobial activity” (priority 2015, dated 2020).
≈ marks a conversion by molar mass, not a printed value. Peptide text beside a SMILES is read from it.

Tests used:
E. coli ATCC 25922 = type: cell-based, Escherichia coli; conditions: for Antimicrobial activity (MIC) Experimental values: ATCC 25922; for MIC in MH medium: ATCC 25922, 16 h
Experimental: (§1) MIC: Minimal Inhibitory Concentration of AMPs in MH Medium Against E. coli ATCC 25922 Minimal inhibitory concentration (MIC) represents for the lowest concentration of peptide at which the AMP can still kill 90% of the bacteria. All MIC tests for WLK peptide series SEQ ID NO:1-13 were measured against Escherichia coli strain (ATCC 25922) in triplicate. Peptide concentration was determined by UV spectrophotometer (Ultrospec 1100 pro from Amersham Biosciences) at 280 nm with proper extinction coefficient. (Gill S. C. & Von Hippel P. H., Analytical biochemistry 1989, 182(2), 319-326). All of the samples were prepared from a stock solution containing peptides of concentrations 5, 2.5, 1.25, 0.625, 0.313, 0.156 and 0.078 mg/ml. Bacteria culture in the middle of logarithmic growth at a concentration of 5×10^5 colony-formation unit (CFU) and protein solution at the aforementioned concentrations were uniformly mixed in a 96-well culture plate (each well contains 1 microliter protein solution and 99 microliter of bacteria culture). After growing the culture at 37° C. for 16 hours, how bacterial growth was inhibited was measured by Thermo Max (Molecular Devices) at the wavelength of 600 nm. The MIC values were determined by triplicates of the above experiments.

[1] = tested on: Escherichia coli strain (ATCC 25922); type: cell-based
Experimental: as §1, with “Minimal” for “MIC: Minimal Inhibitory Concentration of AMPs in MH Medium Against E. coli ATCC 25922 Minimal”

human red blood cells = type: cell-based
Experimental: Hemolysis Activity Test Hemolytic activity was determined by measuring hemolysis of human red blood cells. Fresh red blood cells and PBS buffer solution (pH 7.4) was mixed uniformly and centrifugated by relative centrigugal force (RCF) 800 g rpm for 10 minutes, washed and then diluted by the PBS buffer solution to 10% concentration by volume (v/v). All the tested peptides were prepared with different concentrations (800, 400, 200, 100, 50, 25, 12.5, 6.25, 3.13, 1.56 μg/ml) and then mixed with PBS buffer in 1:1 ratio (100 μL:100 μL) by volume. In 1:1 ratio (v/v), the red blood cell solution was mixed with a PBS buffer, with or without 2% Triton X-100, respectively as the positive and negative controls. All samples to be tested were settled at 37° C. environment for 1 hour. Next, the specimen was centrifuged under RCF 800 g for 10 minutes and the absorbance of its supernatant was measured at a wavelength of 450 nm. The hemolytic activity would be measured according to the following formula: “% hemolysis=[Asample−APBS]/[ATritonX100−APBS]”

CC(C)C[C@H](NC(=O)[C@H](Cc1c[nH]c2ccccc12)NC(=O)[C@H](CCCCN)NC(=O)[C@H](CC(C)C)NC(=O)[C@H](Cc1c[nH]c2ccccc12)NC(=O)[C@H](CCCCN)NC(=O)[C@H](CC(C)C)NC(=O)[C@H](Cc1c[nH]c2ccccc12)NC(=O)[C@H](CCCCN)NC(=O)[C@H](CCCCN)NC(=O)[C@H](CCCCN)NC(=O)[C@H](CCCCN)NC(=O)[C@@H](N)CCCCN)C(=O)O [SEQ ID NO. 11, KKKKKWLKWLKWL] (H-KKKKKWLKWLKWL-OH; N-terminus and C-terminus assumed)
Antimicrobial activity (MIC) Experimental values (E. coli ATCC 25922): 1.56 mg/L
MIC in MH medium (E. coli ATCC 25922): 1.56 mg/L (≈ 0.86 µM)
MIC in LYM medium, NaCl 50 [1]: 1.56 mg/L (≈ 0.86 µM)
MIC in LYM medium, NaCl 100 [1]: 1.56 mg/L (≈ 0.86 µM)
MIC in LYM medium, NaCl 200 [1]: 1.56 mg/L (≈ 0.86 µM)
MIC in LYM medium, NaCl 300 [1]: 3.13 mg/L (≈ 1.73 µM)
MIC in LYM medium, control [1]: 1.56 mg/L (≈ 0.86 µM)

CC(C)C[C@H](NC(=O)[C@H](Cc1c[nH]c2ccccc12)NC(=O)[C@H](CCCCN)NC(=O)[C@H](CC(C)C)NC(=O)[C@H](Cc1c[nH]c2ccccc12)NC(=O)[C@H](CCCCN)NC(=O)[C@H](CC(C)C)NC(=O)[C@H](Cc1c[nH]c2ccccc12)NC(=O)[C@H](CCCCN)NC(=O)[C@H](CCCCN)NC(=O)[C@H](CCCCN)NC(=O)[C@@H](N)CCCCN)C(=O)N[C@@H](CCCCN)C(=O)O [SEQ ID NO. 12, KKKKWLKWLKWLK] (H-KKKKWLKWLKWLK-OH)
Antimicrobial activity (MIC) Experimental values (E. coli ATCC 25922): 1.56 mg/L
MIC in MH medium (E. coli ATCC 25922): 1.56 mg/L (≈ 0.86 µM)
MIC in LYM medium, NaCl 50 [1]: 1.56 mg/L (≈ 0.86 µM)
MIC in LYM medium, NaCl 100 [1]: 3.13 mg/L (≈ 1.73 µM)
MIC in LYM medium, NaCl 200 [1]: 3.13 mg/L (≈ 1.73 µM)
MIC in LYM medium, NaCl 300 [1]: 3.13 mg/L (≈ 1.73 µM)
MIC in LYM medium, control [1]: 1.56 mg/L (≈ 0.86 µM)
hemolytic activity on human erythrocytes (human red blood cells): lower hemolytic activity

CC(C)C[C@H](NC(=O)[C@H](Cc1c[nH]c2ccccc12)NC(=O)[C@H](CCCCN)NC(=O)[C@H](CC(C)C)NC(=O)[C@H](Cc1c[nH]c2ccccc12)NC(=O)[C@H](CCCCN)NC(=O)[C@H](CC(C)C)NC(=O)[C@H](Cc1c[nH]c2ccccc12)NC(=O)[C@H](CCCCN)NC(=O)[C@H](CCCCN)NC(=O)[C@@H](N)CCCCN)C(=O)N[C@@H](CCCCN)C(=O)N[C@@H](CCCCN)C(=O)O [SEQ ID NO. 13, KKKWLKWLKWLKK] (H-KKKWLKWLKWLKK-OH; N-terminus and C-terminus assumed)
Antimicrobial activity (MIC) Experimental values (E. coli ATCC 25922): 1.56 mg/L
MIC in MH medium (E. coli ATCC 25922): 1.56 mg/L (≈ 0.86 µM)
MIC in LYM medium, NaCl 50 [1]: 3.13 mg/L (≈ 1.73 µM)
MIC in LYM medium, NaCl 100 [1]: 1.56 mg/L (≈ 0.86 µM)
MIC in LYM medium, NaCl 200 [1]: 3.13 mg/L (≈ 1.73 µM)
MIC in LYM medium, NaCl 300 [1]: 12.5 mg/L (≈ 6.89 µM)
MIC in LYM medium, control [1]: 1.56 mg/L (≈ 0.86 µM)
